Assay results reported in doi:10.1101/2024.12.05.627101v1 (biorxiv, 2024).

What was measured:
human mGlu5 (hmGlu5) [1] = molecular target: T1, human mGlu5 (hmGlu5) (Homo sapiens, UniProt P41594); assay: cell-based; set-up: species or system HEK293A; settings: HEK293-A, read-out: iCa2+ human mGlu5 Emax
human mGlu5 (hmGlu5) [2] = molecular target: T1, human mGlu5 (hmGlu5); assay: iCa2+ mobilisation; type: cell-based
human mGlu5 (hmGlu5) [3] = molecular target: T1, human mGlu5 (hmGlu5); assay: whole-cell [3H]methoxy-PEPy inhibition binding; type: cell-based
human mGlu5 (hmGlu5) [4] = molecular target: T1, human mGlu5 (hmGlu5); assay: whole-cell [3H]methoxy-PEPy inhibition binding; type: cell-based; remark: listed apart in the source
human mGlu5 (hmGlu5) [5] = molecular target: T1, human mGlu5 (hmGlu5); assay: IP1 accumulation; type: cell-based
human mGlu5 (hmGlu5) [6] = molecular target: T1, human mGlu5 (hmGlu5); assay: IP1 accumulation; type: cell-based; remark: listed apart in the source
human mGlu5 (hmGlu5) [7] = molecular target: T1, human mGlu5 (hmGlu5); assay: whole-cell saturation radioligand binding; type: cell-based

T1 sequence (P41594 21-1180 isoform P41594-2): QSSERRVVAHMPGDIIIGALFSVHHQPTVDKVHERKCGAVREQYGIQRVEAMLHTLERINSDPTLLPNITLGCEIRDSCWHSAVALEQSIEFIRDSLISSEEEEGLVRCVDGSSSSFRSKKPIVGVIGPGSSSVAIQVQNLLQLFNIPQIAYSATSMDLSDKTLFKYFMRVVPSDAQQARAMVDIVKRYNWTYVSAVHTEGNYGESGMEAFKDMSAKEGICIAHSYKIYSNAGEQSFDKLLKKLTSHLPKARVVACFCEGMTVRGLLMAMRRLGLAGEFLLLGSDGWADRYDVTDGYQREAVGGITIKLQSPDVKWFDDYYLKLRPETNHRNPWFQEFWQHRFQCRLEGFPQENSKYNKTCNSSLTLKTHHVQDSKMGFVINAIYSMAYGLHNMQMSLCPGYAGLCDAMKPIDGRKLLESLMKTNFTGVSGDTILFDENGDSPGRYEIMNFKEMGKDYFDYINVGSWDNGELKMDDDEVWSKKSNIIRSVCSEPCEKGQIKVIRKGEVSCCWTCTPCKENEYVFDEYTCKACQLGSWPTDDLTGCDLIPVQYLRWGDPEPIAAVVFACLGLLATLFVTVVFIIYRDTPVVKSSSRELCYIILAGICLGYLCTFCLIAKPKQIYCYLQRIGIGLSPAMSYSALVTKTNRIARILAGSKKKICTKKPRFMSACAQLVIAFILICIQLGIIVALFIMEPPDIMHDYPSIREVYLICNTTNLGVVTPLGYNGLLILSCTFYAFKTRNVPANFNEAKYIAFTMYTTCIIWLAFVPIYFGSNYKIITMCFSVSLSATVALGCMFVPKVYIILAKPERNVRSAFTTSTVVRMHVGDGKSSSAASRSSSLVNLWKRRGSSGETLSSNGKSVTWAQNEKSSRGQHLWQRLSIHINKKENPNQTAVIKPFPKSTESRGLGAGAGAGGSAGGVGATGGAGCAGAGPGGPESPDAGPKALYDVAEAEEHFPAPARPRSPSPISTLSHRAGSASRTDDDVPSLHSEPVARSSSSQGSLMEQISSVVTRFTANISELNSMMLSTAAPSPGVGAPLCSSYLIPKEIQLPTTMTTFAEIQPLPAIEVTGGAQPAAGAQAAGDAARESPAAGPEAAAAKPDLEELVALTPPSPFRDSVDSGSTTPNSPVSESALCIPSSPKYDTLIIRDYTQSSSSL

Structure (SMILES): N[C@H](C(=O)O)c1cc(O)cc(O)c1 [DHPG, (S)-3,5-dihydroxyphenylglycine]
- Emax (human mGlu5 (hmGlu5) [1]): 80.3 ± 2.5%
- EC50 (human mGlu5 (hmGlu5) [2]): 1.1 µM

Structure (SMILES): O=C(COCc1ccc(F)cc1)N1CCN(c2ccc(F)cc2F)CC1 [DPFE, 1-(4-(2,4-difluorophenyl)piperazin-1-yl)-2-((4-fluorobenzyl)oxy)ethanone]
- Ki (human mGlu5 (hmGlu5) [3]): 7.41 µM

Structure (SMILES): CCCCOc1ccc(C(=O)Nc2ccc(F)cc2F)cc1 [VU0357121, 4-butoxy-N-(2,4-difluorophenyl)benzamide]
- Kd (human mGlu5 (hmGlu5) [4]): 0.537 µM

Structure (SMILES): N#Cc1cc(F)cc(C(=O)Nc2cccc(Cl)c2F)c1 [VU0366248, N-(3-chloro-2-fluorophenyl)-3-cyano-5-fluorobenzamide]
- Kd (human mGlu5 (hmGlu5) [4]): 0.224 µM
- IC50 (human mGlu5 (hmGlu5) [5]): 0.115 µM

Structure (SMILES): O=C(c1ccc(F)cc1)N1CCc2nc(COc3ccccc3)oc2C1 [VU0409551, (4-fluorophenyl)(2-(phenoxymethyl)-6,7-dihydrooxazolo[5,4-c]pyridin-5(4H)-yl)methanone]
- EC50 (human mGlu5 (hmGlu5) [6]): 0.661 µM
- Ki (human mGlu5 (hmGlu5) [3]): 1.41 µM

Structure (SMILES): C[C@@H](NC(=O)c1ccc(C#Cc2cccc(F)c2)cn1)C(C)(C)O [VU0424465, (R)-5-((3-fluorophenyl)ethynyl)-N-(3-hydroxy-3-methylbutan-2-yl)picolinamide]
- Kd (human mGlu5 (hmGlu5) [4]): 0.0355 µM
- Emax (human mGlu5 (hmGlu5) [1]): 69.5 ± 4.5%
- EC50 (human mGlu5 (hmGlu5) [2]): 0.275 µM

Structure (SMILES): COc1cncc(C#Cc2ccccn2)c1 [[3H]methoxy-PEPy]
- Kd (human mGlu5 (hmGlu5) [7]): 0.00457 µM

Structure (SMILES): CN1CC(=O)N=C1NC(=O)Nc1cccc(Cl)c1 [fenobam, N-(3-chlorophenyl)-3-[(2e)-1-methyl-4-oxoimidazo-lidin-2-ylidene]urea]
- Kd (human mGlu5 (hmGlu5) [4]): 0.0813 µM
- IC50 (human mGlu5 (hmGlu5) [5]): 0.055 µM

Structure (SMILES): N[C@@H](CCC(=O)O)C(=O)O [glutamate]
- Emax (human mGlu5 (hmGlu5) [1]): 103 ± 3.9%
